Source: article PMC5218480 (PLoS ONE, 2017)

Test system: MV-4-11 cells
Assay: Gene expression microarray analysis (Affymetrix PrimeView) and GSEA
Format: cell-based, human
Set-up: RFU PODN (11730768_x_at) / Fold change /veh PODN (11730768_x_at) / RFU LINC00158 (11744669_a_at) / Fold change /veh LINC00158 (11744669_a_at) / RFU DUSP10 (11751237_a_at) / Fold change /veh DUSP10 (11751237_a_at) / RFU ID3 (11757404_x_at) / Fold change /veh ID3 (11757404_x_at) / RFU PLEKHG5 (11737974_s_at) / Fold change /veh PLEKHG5 (11737974_s_at) / RFU LRRC4B (11730491_at) / Fold change /veh LRRC4B (11730491_at) / RFU GIMAP4 (11747438_a_at) / Fold change /veh GIMAP4 (11747438_a_at) / RFU KRT8 (11758183_x_at) / Fold change /veh KRT8 (11758183_x_at) / RFU CNN1 (11734310_a_at) / Fold change /veh CNN1 (11734310_a_at) / RFU VPS37D (11726825_at) / Fold change /veh VPS37D (11726825_at) / RFU C10orf10 (11716522_x_at) / Fold change /veh C10orf10 (11716522_x_at) / RFU KIR2DL2 /// KIR2DL4 /// KIR2DL5A /// KIR2DL5B /// KIR2DS1 /// KIR2DS2 /// KIR2DS3 /// KIR2DS4 /// KIR3DL3 /// KIR3DL3 /// KIR3DS1 (11738374_at) / Fold change /veh KIR2DL2 /// KIR2DL4 /// KIR2DL5A /// KIR2DL5B /// KIR2DS1 /// KIR2DS2 /// KIR2DS3 /// KIR2DS4 /// KIR3DL3 /// KIR3DL3 /// KIR3DS1 (11738374_at) / RFU C1QL1 (11718748_at) / Fold change /veh C1QL1 (11718748_at) / RFU TMPRSS4 (11747572_a_at) / Fold change /veh TMPRSS4 (11747572_a_at) / RFU HAMP (11756126_x_at) / Fold change /veh HAMP (11756126_x_at) / RFU RNFT2 (11725882_a_at) / Fold change /veh RNFT2 (11725882_a_at) / RFU NR4A2 (11747474_a_at) / Fold change /veh NR4A2 (11747474_a_at) / RFU ABCC12 (11746883_a_at) / Fold change /veh ABCC12 (11746883_a_at) / RFU TMEM136 (11760407_x_at) / Fold change /veh TMEM136 (11760407_x_at) / RFU CLDN22 /// WWC2 (11732394_at) / Fold change /veh CLDN22 /// WWC2 (11732394_at) / RFU HLA-DPB1 (11760878_x_at) / Fold change /veh HLA-DPB1 (11760878_x_at) / RFU SPINT1 (11716480_a_at) / Fold change /veh SPINT1 (11716480_a_at) / RFU GAP43 (11754022_s_at) / Fold change /veh GAP43 (11754022_s_at) / RFU A4GNT (11735810_at) / Fold change /veh A4GNT (11735810_at) / RFU PRB3 (11715151_x_at) / Fold change /veh PRB3 (11715151_x_at) / RFU TUBB4B (11761932_at) / Fold change /veh TUBB4B (11761932_at) / RFU CAPN14 (11732068_a_at) / Fold change /veh CAPN14 (11732068_a_at) / RFU TMCC2 (11721928_a_at) / Fold change /veh TMCC2 (11721928_a_at) / RFU IRGQ (11745062_a_at) / Fold change /veh IRGQ (11745062_a_at) / RFU FAM174B (11720279_a_at) / Fold change /veh FAM174B (11720279_a_at) / RFU TMPRSS4 (11748680_a_at) / Fold change /veh TMPRSS4 (11748680_a_at) / RFU FAM212B (11763350_a_at) / Fold change /veh FAM212B (11763350_a_at) / RFU PLEKHG5 (11743358_a_at) / Fold change /veh PLEKHG5 (11743358_a_at) / RFU ZSCAN30 (11745921_a_at) / Fold change /veh ZSCAN30 (11745921_a_at) / RFU CMKLR1 (11741424_a_at) / Fold change /veh CMKLR1 (11741424_a_at) / RFU LOC101060620 /// MAPK8IP1 (11723275_at) / Fold change /veh LOC101060620 /// MAPK8IP1 (11723275_at) / RFU SPTSSB (11747773_x_at) / Fold change /veh SPTSSB (11747773_x_at) / RFU PRSS12 (11739890_at) / Fold change /veh PRSS12 (11739890_at) / RFU BIN1 (11741810_x_at) / Fold change /veh BIN1 (11741810_x_at) / RFU WNT11 (11732464_a_at) / Fold change /veh WNT11 (11732464_a_at) / RFU C10orf10 (11716521_a_at) / Fold change /veh C10orf10 (11716521_a_at) / RFU C5orf56 (11738089_at) / Fold change /veh C5orf56 (11738089_at) / RFU CYB561 (11721691_x_at) / Fold change /veh CYB561 (11721691_x_at) / RFU ANKRD19P (11752326_a_at) / Fold change /veh ANKRD19P (11752326_a_at) / RFU OR2T12 /// OR2T33 /// OR2T8 (11738714_s_at) / Fold change /veh OR2T12 /// OR2T33 /// OR2T8 (11738714_s_at) / RFU VCAN (11748164_a_at) / Fold change /veh VCAN (11748164_a_at) / RFU JSRP1 (11732532_at) / Fold change /veh JSRP1 (11732532_at) / RFU KRTAP10-11 (11738290_x_at) / Fold change /veh KRTAP10-11 (11738290_x_at) / RFU MYO3A (11730013_a_at) / Fold change /veh MYO3A (11730013_a_at) / RFU EBF3 (11725865_a_at) / Fold change /veh EBF3 (11725865_a_at) / RFU CAMK2N1 (11719241_x_at) / Fold change /veh CAMK2N1 (11719241_x_at) / RFU C5orf56 (11738088_a_at) / Fold change /veh C5orf56 (11738088_a_at) / RFU OLFML3 (11715873_a_at) / Fold change /veh OLFML3 (11715873_a_at) / RFU LOC100653217 /// NTM (11731650_a_at) / Fold change /veh LOC100653217 /// NTM (11731650_a_at) / RFU MAPK11 (11762145_a_at) / Fold change /veh MAPK11 (11762145_a_at) / RFU FIZ1 (11724087_x_at) / Fold change /veh FIZ1 (11724087_x_at) / RFU OASL (11726364_x_at) / Fold change /veh OASL (11726364_x_at) / RFU SOX15 (11748057_x_at) / Fold change /veh SOX15 (11748057_x_at) / RFU CD79A (11719716_a_at) / Fold change /veh CD79A (11719716_a_at) / RFU HIST1H1D (11736915_at) / Fold change /veh HIST1H1D (11736915_at) / RFU CASKIN2 (11723855_a_at) / Fold change /veh CASKIN2 (11723855_a_at) / RFU LOC730098 (11760151_x_at) / Fold change /veh LOC730098 (11760151_x_at) / RFU OR4N2 (11742367_at) / Fold change /veh OR4N2 (11742367_at) / RFU PRRT2 (11749266_a_at) / Fold change /veh PRRT2 (11749266_a_at) / RFU SNX32 (11753110_a_at) / Fold change /veh SNX32 (11753110_a_at) / RFU CDHR5 (11726645_a_at) / Fold change /veh CDHR5 (11726645_a_at) / RFU RCAN1 (11760418_a_at) / Fold change /veh RCAN1 (11760418_a_at) / RFU FAM167A (11723789_a_at) / Fold change /veh FAM167A (11723789_a_at) / RFU FAM26E (11764081_at) / Fold change /veh FAM26E (11764081_at) / RFU ISYNA1 (11749810_s_at) / Fold change /veh ISYNA1 (11749810_s_at) / RFU ACY1 (11761880_at) / Fold change /veh ACY1 (11761880_at) / RFU 11764098_at / Fold change /veh 11764098_at / RFU SAMD14 (11745864_x_at) / Fold change /veh SAMD14 (11745864_x_at) / RFU NPB (11741838_a_at) / Fold change /veh NPB (11741838_a_at) / RFU TMPRSS6 (11731388_a_at) / Fold change /veh TMPRSS6 (11731388_a_at) / RFU KRTAP10-2 (11738614_at) / Fold change /veh KRTAP10-2 (11738614_at) / RFU ARHGAP8 /// PRR5-ARHGAP8 (11727945_x_at) / Fold change /veh ARHGAP8 /// PRR5-ARHGAP8 (11727945_x_at) / RFU KRTAP5-7 /// NADSYN1 (11734609_at) / Fold change /veh KRTAP5-7 /// NADSYN1 (11734609_at) / RFU RASL12 (11751679_a_at) / Fold change /veh RASL12 (11751679_a_at) / RFU CDKN2B (11736163_a_at) / Fold change /veh CDKN2B (11736163_a_at) / RFU PRF1 (11729649_at) / Fold change /veh PRF1 (11729649_at) / RFU, ZNF638 /// ZNF638-IT1 / Fold change vs veh, ZNF638 /// ZNF638-IT1 / RFU, PANK3 / Fold change vs veh, PANK3 / RFU, SH3YL1 / Fold change vs veh, SH3YL1 / RFU, ZEB2 / Fold change vs veh, ZEB2 / RFU, NRIP1 / Fold change vs veh, NRIP1 / RFU, PTTG1IP / Fold change vs veh, PTTG1IP / RFU, CAPN2 / Fold change vs veh, CAPN2 / RFU, MED14 / Fold change vs veh, MED14 / RFU, SNORA58 / Fold change vs veh, SNORA58 / RFU, C1orf63 / Fold change vs veh, C1orf63 / RFU, LRRFIP1 / Fold change vs veh, LRRFIP1 / RFU, NDUFAF7 / Fold change vs veh, NDUFAF7 / RFU, SLC12A2 / Fold change vs veh, SLC12A2 / RFU, IBTK / Fold change vs veh, IBTK / RFU, ESF1 / Fold change vs veh, ESF1 / Fold change vs veh, TMEM50B / RFU, TAOK1 / Fold change vs veh, TAOK1 / RFU, ACBD3 / Fold change vs veh, ACBD3 / RFU, TMA16 / Fold change vs veh, TMA16 / RFU, RWDD3 / Fold change vs veh, RWDD3 / RFU, BCAT1 / Fold change vs veh, BCAT1 / RFU, EDEM3 / Fold change vs veh, EDEM3 / RFU, TMEM33 / Fold change vs veh, TMEM33 / RFU, WDR75 / Fold change vs veh, WDR75 / RFU, AHCTF1 / Fold change vs veh, AHCTF1 / RFU, TFRC / Fold change vs veh, TFRC / RFU, ZDHHC17 / Fold change vs veh, ZDHHC17 / RFU, NOM1 / Fold change vs veh, NOM1 / RFU, ARL8B / Fold change vs veh, ARL8B / RFU, ZBTB11 / Fold change vs veh, ZBTB11 / RFU, TAMM41 / Fold change vs veh, TAMM41 / RFU, KIAA1704 /// LOC100996395 / Fold change vs veh, KIAA1704 /// LOC100996395 / RFU, ING1 / Fold change vs veh, ING1 / RFU, TRMT61B / Fold change vs veh, TRMT61B / RFU, FUBP3 / Fold change vs veh, FUBP3 / RFU, TP53 / Fold change vs veh, TP53 / RFU, TNKS2 / Fold change vs veh, TNKS2 / RFU, ZFP14 / Fold change vs veh, ZFP14 / RFU, ACTR2 / Fold change vs veh, ACTR2 / RFU, PPP3R1 / Fold change vs veh, PPP3R1 / RFU, PIK3R1 / Fold change vs veh, PIK3R1 / RFU, HNRNPA1 / Fold change vs veh, HNRNPA1 / RFU, RNF170 / Fold change vs veh, RNF170 / RFU, ZNF28 / Fold change vs veh, ZNF28 / RFU, RNGTT / Fold change vs veh, RNGTT / RFU, OGT / Fold change vs veh, OGT / RFU, BRD1 / Fold change vs veh, BRD1 / RFU, MARS / Fold change vs veh, MARS / RFU, ZNF655 / Fold change vs veh, ZNF655 / RFU, FAHD1 / Fold change vs veh, FAHD1 / RFU, BDP1 / Fold change vs veh, BDP1 / RFU, LRRCC1 / Fold change vs veh, LRRCC1 / RFU, ARID1A / Fold change vs veh, ARID1A / RFU, ZNF146 / Fold change vs veh, ZNF146 / RFU, ZNF330 / Fold change vs veh, ZNF330 / RFU, GPN3 / Fold change vs veh, GPN3 / RFU, C9orf123 / Fold change vs veh, C9orf123 / RFU, N4BP2L2 / Fold change vs veh, N4BP2L2 / RFU, ARFIP1 / Fold change vs veh, ARFIP1 / RFU, FAM179B / Fold change vs veh, FAM179B / RFU, BCL10 / Fold change vs veh, BCL10 / RFU, UHRF1BP1L / Fold change vs veh, UHRF1BP1L / RFU, BET1 / Fold change vs veh, BET1 / RFU, CNOT2 / Fold change vs veh, CNOT2 / RFU, ZNF268 / Fold change vs veh, ZNF268 / Fold change vs veh, ZNF507 / RFU, DGCR2 / Fold change vs veh, DGCR2 / RFU, WDSUB1 / Fold change vs veh, WDSUB1 / Fold change vs veh, HSP90B1 /// MIR3652 / RFU, ADSS / Fold change vs veh, ADSS / RFU, GK / Fold change vs veh, GK / RFU, ZNF148 / Fold change vs veh, ZNF148 / RFU, TAF9 / Fold change vs veh, TAF9 / RFU, SLC1A5 / Fold change vs veh, SLC1A5 / RFU, SLMO2 / Fold change vs veh, SLMO2 / RFU, ABCC4 / Fold change vs veh, ABCC4 / RFU, LOC101060439 /// RAP1B / Fold change vs veh, LOC101060439 /// RAP1B / RFU, RFX7 / Fold change vs veh, RFX7 / RFU, GTPBP10 / Fold change vs veh, GTPBP10 / RFU, CNEP1R1 / Fold change vs veh, CNEP1R1 / RFU, BIVM-ERCC5 /// ERCC5 / Fold change vs veh, BIVM-ERCC5 /// ERCC5 / RFU, ILF3 / Fold change vs veh, ILF3 / RFU 11762660_at / Fold change /veh 11762660_at / RFU VCAN (11757783_s_at) / Fold change /veh VCAN (11757783_s_at) / RFU DDX43 (11728927_at) / Fold change /veh DDX43 (11728927_at) / RFU KRT8 (11758188_x_at) / Fold change /veh KRT8 (11758188_x_at) / RFU NKD1 (11759106_at) / Fold change /veh NKD1 (11759106_at) / RFU SRD5A1 (11742802_a_at) / Fold change /veh SRD5A1 (11742802_a_at) / RFU TPSAB1 /// TPSB2 (11721975_s_at) / Fold change /veh TPSAB1 /// TPSB2 (11721975_s_at) / RFU GSTM3 (11746129_a_at) / Fold change /veh GSTM3 (11746129_a_at) / RFU IL23R (11737362_x_at) / Fold change /veh IL23R (11737362_x_at) / RFU TMEM51 (11727254_a_at) / Fold change /veh TMEM51 (11727254_a_at) / RFU PIWIL2 (11732686_x_at) / Fold change /veh PIWIL2 (11732686_x_at) / RFU ORM1 (11744905_x_at) / Fold change /veh ORM1 (11744905_x_at) / RFU CCDC152 (11743942_at) / Fold change /veh CCDC152 (11743942_at) / RFU ECM1 (11717891_a_at) / Fold change /veh ECM1 (11717891_a_at) / RFU IL23R (11748794_a_at) / Fold change /veh IL23R (11748794_a_at) / RFU TNFAIP8L3 (11732012_x_at) / Fold change /veh TNFAIP8L3 (11732012_x_at) / RFU MBOAT4 (11741988_at) / Fold change /veh MBOAT4 (11741988_at) / RFU 11764193_at / Fold change /veh 11764193_at / RFU TMEM53 (11763286_at) / Fold change /veh TMEM53 (11763286_at) / RFU MAGEB2 (11727129_at) / Fold change /veh MAGEB2 (11727129_at) / RFU TMEM200A (11744735_a_at) / Fold change /veh TMEM200A (11744735_a_at) / RFU CCDC152 (11751479_a_at) / Fold change /veh CCDC152 (11751479_a_at) / RFU FAM211A (11726209_a_at) / Fold change /veh FAM211A (11726209_a_at) / RFU RGS16 (11746705_a_at) / Fold change /veh RGS16 (11746705_a_at) / RFU VCAN (11755009_s_at) / Fold change /veh VCAN (11755009_s_at) / RFU RHOB (11743442_s_at) / Fold change /veh RHOB (11743442_s_at) / RFU RGS16 (11720943_a_at) / Fold change /veh RGS16 (11720943_a_at) / RFU RGS16 (11720944_at) / Fold change /veh RGS16 (11720944_at) / RFU, VPS4B / Fold change vs veh, VPS4B / RFU, CREB1 / Fold change vs veh, CREB1 / RFU, DNAJC13 / Fold change vs veh, DNAJC13 / RFU, GNAQ / Fold change vs veh, GNAQ / RFU, CDK5R1 / Fold change vs veh, CDK5R1 / RFU, ZRANB3 / Fold change vs veh, ZRANB3 / RFU, CUL4A / Fold change vs veh, CUL4A / RFU, CCNY / Fold change vs veh, CCNY / RFU, UFL1 / Fold change vs veh, UFL1 / RFU, COG3 / Fold change vs veh, COG3 / RFU, DIAPH2 / Fold change vs veh, DIAPH2 / RFU, SKA2 / Fold change vs veh, SKA2 / RFU, AFF3 / Fold change vs veh, AFF3 / RFU, LMF1 / Fold change vs veh, LMF1 / RFU, IPO11 / Fold change vs veh, IPO11 / RFU, DFFB / Fold change vs veh, DFFB / RFU, FOXP1 / Fold change vs veh, FOXP1 / RFU, CARD8 / Fold change vs veh, CARD8 / RFU, STRN3 / Fold change vs veh, STRN3 / RFU, ADK / Fold change vs veh, ADK / RFU, RASSF2 / Fold change vs veh, RASSF2 / RFU, WIPF1 / Fold change vs veh, WIPF1 / RFU, LARP1B / Fold change vs veh, LARP1B / RFU, RASA1 / Fold change vs veh, RASA1 / RFU, RB1 / Fold change vs veh, RB1 / RFU, PPFIA1 / Fold change vs veh, PPFIA1 / RFU, MAT2A / Fold change vs veh, MAT2A / RFU, CCT5 / Fold change vs veh, CCT5 / RFU, WDR92 / Fold change vs veh, WDR92 / RFU, CUX1 / Fold change vs veh, CUX1 / RFU, TTC7A / Fold change vs veh, TTC7A / RFU, TMEM135 / Fold change vs veh, TMEM135 / RFU, DEPTOR / Fold change vs veh, DEPTOR / RFU, CPM / Fold change vs veh, CPM / RFU, DNAJB6 / Fold change vs veh, DNAJB6 / RFU, CACNA2D3 / Fold change vs veh, CACNA2D3 / RFU, DTX4 / Fold change vs veh, DTX4 / RFU, TFCP2 / Fold change vs veh, TFCP2 / RFU, GMCL1 /// GMCL1P1 / Fold change vs veh, GMCL1 /// GMCL1P1 / RFU, AEBP2 / Fold change vs veh, AEBP2 / RFU, SNHG1 /// SNORD22 /// SNORD25 /// SNORD26 /// SNORD27 /// SNORD28 /// SNORD29 /// SNORD31 / Fold change vs veh, SNHG1 /// SNORD22 /// SNORD25 /// SNORD26 /// SNORD27 /// SNORD28 /// SNORD29 /// SNORD31 / Fold change (Aza/veh), C12orf56 (ProbeSet 11735607_a_at) / Fold change (ACY-1035/veh), C12orf56 (ProbeSet 11735607_a_at) / Fold change (Aza/veh), FGFR1OP (ProbeSet 11751329_s_at) / Fold change (ACY-1035/veh), FGFR1OP (ProbeSet 11751329_s_at) / Fold change (Aza/veh), VPS36 (ProbeSet 11739960_a_at) / Fold change (ACY-1035/veh), VPS36 (ProbeSet 11739960_a_at) / RFU SYPL1 (11715823_x_at) / Fold change /veh SYPL1 (11715823_x_at) / RFU IGFBP7 (11715501_s_at) / Fold change /veh IGFBP7 (11715501_s_at) / RFU REEP3 (11722064_at) / Fold change /veh REEP3 (11722064_at) / RFU IGLL1 (11728026_x_at) / Fold change /veh IGLL1 (11728026_x_at): dose or concentration left out as unconfirmed
Details: ProbeSet 11754362_a_at; LIST D

## Nc1ncn([C@@H]2O[C@H](CO)[C@@H](O)[C@H]2O)c(=O)n1 [azacitidine]
  Fold change vs veh, TTC7A: 0.72
